From the supplement of paper PMC4862054

Legend:
Settings in all cases: incubation time: 72 h
[1] = system: BT-474; test: normalised response (% of control), CellTox Green; higher = less cell death (100 = DMSO, 0 = benzethonium chloride kill control)
In short: (§1)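 Two readouts were taken after 72 h: CellTox Green fluorescence (485/520 nm) first, then CellTiter-Glo luminescence after 10 min at room temperature. Breast cancer cell lines had been seeded as 20 µl suspension into 384-well plates holding compound at 5 concentrations in 10-fold steps across a compound-specific 10,000-fold range. Each value is a normalised signal at a single concentration, with plates scaled to 0.1 % DMSO (100) and a positive kill control (0).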

[2] = system: BT-549; test: as above
In short: as §1

[3] = system: CAL-120; test: as above
In short: as §1

[4] = system: CAL-148; test: as above
In short: as §1

[5] = system: CAL-51; test: as above
In short: as §1

[6] = system: CAL-85-1; test: as above
In short: as §1

[7] = system: DU-4475; test: as above
In short: as §1

[8] = system: HCC1143; test: as above
In short: as §1

[9] = system: HCC1599; test: as above
In short: as §1

[10] = system: HCC1937; test: as above
In short: as §1

[11] = system: HDQ-P1; test: as above
In short: as §1

[12] = system: Hs578T; test: as above
In short: as §1

[13] = system: MCF-10A; test: as above
In short: as §1

[14] = system: MDA-MB-231; test: as above
In short: as §1

[15] = system: MDA-MB-453; test: as above
In short: as §1

[16] = system: MDA-MB-468; test: as above
In short: as §1

[17] = system: MFM-223; test: as above
In short: as §1

[18] = system: BT-474; test: normalised response (% of control), CellTiter-Glo; higher = more viable cells (100 = DMSO, 0 = benzethonium chloride kill control)
Procedure: (§2)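 DSRT, 72 h incubation, CellTox Green / CellTiter-Glo readout. Signal is normalised to DMSO and benzethonium chloride controls. Value is the normalised response at the highest dose.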

[19] = system: BT-549; test: as above
Procedure: as §2

[20] = system: CAL-120; test: as above
Procedure: as §2

[21] = system: CAL-148; test: as above
Procedure: as §2

[22] = system: CAL-51; test: as above
Procedure: as §2

[23] = system: CAL-85-1; test: as above
Procedure: as §2

[24] = system: DU-4475; test: as above
Procedure: as §2

[25] = system: HCC1143; test: as above
Procedure: as §2

[26] = system: HCC1599; test: as above
Procedure: as §2

[27] = system: HCC1937; test: as above
Procedure: as §2

[28] = system: HDQ-P1; test: as above
Procedure: as §2

[29] = system: Hs578T; test: as above
Procedure: as §2

[30] = system: MCF-10A; test: as above
Procedure: as §2

[31] = system: MDA-MB-231; test: as above
Procedure: as §2

[32] = system: MDA-MB-436; test: as above
Procedure: as §2

[33] = system: MDA-MB-453; test: as above
Procedure: as §2

[34] = system: MDA-MB-468; test: as above
Procedure: as §2

[35] = system: MFM-223; test: as above
Procedure: as §2

[36] = system: SK-BR-3; test: as above
Procedure: as §2

[37] = system: MDA-MB-436; test: normalised response (% of control), CellTox Green; higher = less cell death (100 = DMSO, 0 = benzethonium chloride kill control)
In short: as §1

SMILES	normalised response [1] [%]	normalised response [2] [%]	normalised response [3] [%]	normalised response [4] [%]	normalised response [5] [%]	normalised response [6] [%]	normalised response [7] [%]	normalised response [8] [%]	normalised response [9] [%]	normalised response [10] [%]	normalised response [11] [%]	normalised response [12] [%]	normalised response [13] [%]	normalised response [14] [%]	normalised response [15] [%]	normalised response [16] [%]	normalised response [17] [%]	normalised response [18] [%]	normalised response [19] [%]	normalised response [20] [%]	normalised response [21] [%]	normalised response [22] [%]	normalised response [23] [%]	normalised response [24] [%]	normalised response [25] [%]	normalised response [26] [%]	normalised response [27] [%]	normalised response [28] [%]	normalised response [29] [%]	normalised response [30] [%]	normalised response [31] [%]	normalised response [32] [%]	normalised response [33] [%]	normalised response [34] [%]	normalised response [35] [%]	normalised response [36] [%]	normalised response [37] [%]
C[C@]1(O)C[C@@H](c2nc(-c3ccc4ccc(-c5ccccc5)nc4c3)c3c(N)nccn32)C1 [Linsitinib] (10000 nM)	95.6	111	97.5	98.4	95.4	89.2	97.4	119	101	105	107	68.2	101	65	99.2	96.4	89.9	68.8	76	73.6	88.2	126	69.6	85.5	68.5	50.9	88.7	53.5	91.9	26.1	77.2	85.5	80	59.2	83.1	49.9	
C[C@]12CC[C@@H]3c4ccc(OC(=O)N(CCCl)CCCl)cc4CC[C@H]3[C@@H]1CC[C@@H]2O [Estramustine] (10000 nM)	99	58	98.3	101	74	130	96.4	110	95	81.2		79.7	106	102	96.2		96.7	95	106	103	78.5	93.3	94.2	85.5	97.5	95.5	91.7	105	92.7	88	96.6	91.7	92.4	87.7	85.9	87.4	99.6
CC(=O)N(O)CCCCCNC(=O)CCC(=O)N(O)CCCCCNC(=O)CCC(=O)N(O)CCCCCN [Deferoxamine] (10000 nM)	82.7	81.3	103	37.6	48	128	81.2	79.9	92.8	90.9	104	113	105	98.7	102	150	101	76	54.5	87.2	26.6	37.9	78.8	18.3	65	45.9	64.1	64.6	62	57.5	71.8	48.8	89.6	37.7	70.9	40.5	98.2
CC(=O)c1c(C)c2cnc(Nc3ccc(N4CCNCC4)cn3)nc2n(C2CCCC2)c1=O [Palbociclib] (10000 nM)	96	106	102		94.1	103	97	101	99.4	89	50.1	135	74.4	121	61.4	193	90.1	69.7	79.3	77.7	80.4	55	70.4	86.9	76.5	86.5	93.2	86.3	86.9	65.8	84.3	74.4	92.7	68.2	65.9	52.9	68.1
COc1cc(F)c(F)c(Nc2ccc(I)cc2F)c1NS(=O)(=O)C1(C[C@H](O)CO)CC1 [Refametinib] (10000 nM)	99.6	101	92	75.8	101	-0.94	69.6	106	107	88.4	82.1	97.8	65.8	64.1	102	-53.7	97.9	47.8	65.7	55.7	65.8	92.5	23.8	0.11	67.3	102	58.5	43.6	55.1	25	43.7	54.8	82.7	45.2	41	77.2	95.6
CC1(C)CCC(CN2CCN(c3ccc(C(=O)NS(=O)(=O)c4ccc(NCC5CCOCC5)c([N+](=O)[O-])c4)c(Oc4cnc5[nH]ccc5c4)c3)CC2)=C(c2ccc(Cl)cc2)C1 [ABT-199] (10000 nM)	101	84.9	88.4	98.2	101	114	97.9	103	105	-11.4	98.2	102	108	-19	97.7	118	86.4	70.2	91.4	98.5	105	119	97.8	86.2	93.7	66.4	73.2	90.8	90.5	116	66.3	102	92.9	85.9	91	90	95.9
Cc1ccc([N+](=O)[O-])cc1S(=O)(=O)N(C)/N=C/c1cnc2ccc(Br)cn12 [PIK-75] (10000 nM)	7.46	-7.34	81.7	65.1	-5.71	50.7	74.7	54.4	72.6	24.7	66.3	-10.9	-39.7	-38.5	51.3	31.6	18.6	8.5	1.57	26.6	37.5	5.22	7.97	1.22	12.6	8.43	6.99	17.4	0.96	-0.11	1.78	15	0.48	2.17	3.73	0.21	76
